Data on 30 compounds can be found in US9938249B2, “Anti-amyloid compounds containing benzofurazan” (Treventis Corporation, priority 2014, dated 2018).

A word on the IC50: it is the concentration needed to halve the response being measured.

Experiment [1] has as its target Terminally biotinylated beta-amyloid (Aβ42) (Homo sapiens, UniProt P05067). Nature of the experiment: Aβ42 biotinylated (biotin-AB) oligomerization assay, NeutrAvidin capture ELISA. The format is biochemical. As to conditions: approximate value; 1 hr oligomerization at room temperature; read-out: IC50 Aβ 42-bio. How it is done: Aβ42 Biotinylated Assay Terminally biotinylated beta-amyloid (biotin-AB) was dissolved in HFIP at the concentration of 1 mg/ml and aliquoted to 50 μl/tube in 0.65 ml colored microfuge tubes (Fisher 02-681-248). The aliquots were diluted immediately by adding 450 μl of HFIP to 0.1 mg/ml. Approximately 46 ul (containing approximately 4.6 ug of biotin-AB) were taken from a tube, 100 ul of HFIP added, vortexed, and dried to a thin film under an N2 stream. 100 μl of trifluoroacetic acid (TFA) was added and vortexed. After 10 minute incubation at room temperature in a hood, resulting in disaggregation of seeds, the sample was vortexed again and dried again to a thin film under an N2 stream. 100 μl of HFIP was added, mixed, and the biotin-AB sample was dried for a third time under an N2 stream to remove residual TFA. The treated biotin-AB was dissolved in DMSO to a final peptide concentration of […] (SOX). An ELISA “capture” plate (Costar 9018) was coated with 50 μl of 1 μg/ml NeutrAvidin™ (NA) in 10 mM sodium phosphate buffer, pH 7.5. (NeutrAvidin can be prepared as 1 mg/ml (1000×) in milliQ water/10% glycerol and stored at −80° C. before use.) The plate was sealed plate with adhesive film and stored at 4° C. overnight, then blocked for 2 hours (unsealed) at room temperature with 200 μl/well OFB+0.1% v/v Tween 20. The “capture” plate was allowed to come to room temperature. Several dilutions of test compound were prepared with 100% DMSO, according to the desired concentration to be tested. 2.5 μl of diluted test compound was pipetted into the bottom of each well of a 96-well “dilution” polypropylene plate (Costar 3365), to which was added 250 ul of Oligomer Formation Buffer (OFB: 20 mM sodium phosphate, pH 7.5-150 mM NaCl). To begin oligomerization, 2 μl/well of the biotin-AB was added to the bottom of each well of a 96-well “reaction” polypropylene plate (Costar 3365) and 100 ul of each well of the “dilution” plate was transferred to the “reaction” plate (final concentration of DMSO being up to 1%). The reaction plate was sealed and incubated for 1 hr at room temperature without shaking. The reaction was then stopped by the addition of 50 ul of 0.3% Tween 20 in water. The “capture” plate blocking solution was removed, and 50 ul of each well of the “reaction” plate was transferred to each well of the “capture” plate. The “capture” plate was sealed and incubated for 2 hours at room temperature with shaking at 150 rpm. The “capture” plate was then washed on a plate washer (3×) with 200 ul/well TBST (20 mM Tris-HCL, pH 7.5/150 mM NaCl/0.1% Tween 20). 50 ul of Streptavidin-horseradish […] (1:20,000 dilution) in OFB+0.1% Tween 20 was added to each well, the “capture” plate was sealed and incubated for 1 hr with shaking at 150 rpm. As before, the plate was washed, then 100 ul of TMB/H2O2 substrate solution was added to each well. After 5-10 minutes, 100 ul of 1% v/v sulfuric acid was added and the absorbance of each well was read at 450 nm using a standard plate reader. Data is summarized in the table below; numbers given in parenthesis for the Aβ 40 Thioflavin T assays are the values in that particular experiment for compound ID 1027, given as the first entry in this table for structural comparison. “IC50 Aβ42-bio” column refers to the approximate value of the Aβ42 biotinylated assay IC50 in micromoles/L.

In the next experiment the target is Aβ40 (Homo sapiens, UniProt P05067). As to the kind of experiment: ThT Aβ aggregation assay (kinetic Thioflavin T fluorescence). In kind it is biochemical. As to conditions: 20 μM Aβ, DMSO control at 80 hr = 0% inhibition, number in parenthesis = compound ID 1027 in that experiment; for inhibition at 10 µM: compound 10 μM, read-out: % inhib Thioflavin T Aβ 40 10 μM; for % inhib Thioflavin T Aβ 40 (3 μm): compound 3 μm (so in the source). How it is done: Preparation of Aβ40 Stock Solutions
Aβ40 (1.0 mg) was pre-treated in a 1.5 mL microfuge tube with HFIP (1 mL) and sonicated for 20 min to disassemble any pre-formed Aβ aggregates. The HFIP was removed with a stream of argon and the Aβ dissolved in Tris base (5.8 mL, 20 mM, pH ˜10). The pH was adjusted to 7.4 with concentrated HCl (˜10 μL) and the solution filtered using a syringe filter (0.2 μm) before being used.
The kinetic ThT assay for Aβ aggregation is similar to that of Chalifour et al (Chalifour et al, 2003, J. Biol. Chem. 278:34874-81). Briefly, pre-treated Aβ40 or Aβ42 (40 μM in 20 mM Tris, pH 7.4) was diluted with an equal volume of 8 μM Thioflavin T (ThT) in Tris (20 mM, pH 7.4, 300 mM NaCl). Aliquots of Aβ/ThT (200 μL) were added to wells of a black polystyrene 96-well plate, followed by 2 μL of a compound in DMSO (variable concentration), or DMSO alone (controls). Incubations were performed in triplicate and were taken to contain 20 μM Aβ, various concentration of compound in 20 mM Tris, pH 7.4, 150 mM NaCl, 1% DMSO. Plates were covered with clear polystyrene lids and incubated at 37° C. in a Tecan Genios microplate reader.
Analysis of ThT and ThS Aggregation Assays
Fluorescence readings (λex=450 nm, λem=480 nm) were taken every 15 min., after first shaking at high intensity for 15 s and allowing to settle for 10 s before each reading. Active compounds attenuated the increase in fluorescence over time that occurred in controls. In FIGS. 1-7, the time this procedure was performed extended to 80 hours (rightmost part of X-axis), at which point fluorescence increase generally reached an asymptote. Applying a definition of DMSO control at 80 hr as 100% aggregation (0% inhibition) and DMSO control at 0 hr as 0% aggregation (100% inhibition), a % inhibition score where higher is better can be calculated for a given concentration of compound. By repeating this procedure over several concentrations, a […] (IC50) can be measured, as is given in the table below for some compounds.

Chain of Aβ40 (P05067 672-711, species assumed): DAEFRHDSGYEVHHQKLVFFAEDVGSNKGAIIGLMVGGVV
Chain of Terminally biotinylated beta-amyloid (Aβ42) (P05067 672-713, species assumed): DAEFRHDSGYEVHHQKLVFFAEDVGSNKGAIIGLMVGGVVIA

As to `Cc1ccc(-c2cc(N3CC(CN4CCCC4)C3)c3nonc3c2)cc1Cl` [compound 1490], the IC50 in experiment [1] is 4.4 µM. At Aβ40, the inhibition at 10 µM was 27%.

As to `COc1cccc(OC)c1-c1cc(N2CC(CN3CCCC3)C2)c2nonc2c1` [compound 1511], in experiment [1], the IC50 stood at 21.3 µM. The inhibition at 10 µM at Aβ40 stood at 27%.

`FC(F)(F)c1cccc(-c2cc(N3CC(CN4CCCC4)C3)c3nonc3c2)c1` [compound 1484]: the IC50 in experiment [1] is 6.5 µM. Further, the inhibition at 10 µM at Aβ40 was 56%.

As to `COCCN1CCC=C(c2cc(N3CC(CN4CCCC4)C3)c3nonc3c2)C1` [compound 1523], the half-inhibitory concentration (IC50) in experiment [1] was found to be 1.3 µM. Also, the inhibition at 10 µM on Aβ40 amounted to 55%.

In the case of `Clc1cccc(-c2cc(N3CC(CN4CCCC4)C3)c3nonc3c2)c1` [compound 1505], the IC50 in experiment [1] turned out to be 4.62 µM. At Aβ40, the inhibition at 10 µM was 62%.

Turning to `Cc1ccc(-c2cc(N3CC(CN4CCCC4)C3)c3nonc3c2)c2ccccc12` [compound 1494], in experiment [1], the IC50 stood at 2.01 µM. In addition, at Aβ40, the inhibition at 10 µM was 45%.

`Clc1cc(Cl)cc(-c2cc(N3CC(CN4CCCC4)C3)c3nonc3c2)c1` [compound 1478]: the IC50 in experiment [1] is 1.82 µM. In addition, the inhibition at 10 µM at Aβ40 came to 63%.

With `CC(C)(C)c1ccc(-c2cc(N3CC(CN4CCCC4)C3)c3nonc3c2)cc1` [compound 1487], the IC50 in experiment [1] was 0.62 µM. Also, at Aβ40, the inhibition at 10 µM turned out to be 33%.

Turning to `c1ccc(-c2cc(N3CC(CN4CCCC4)C3)c3nonc3c2)cc1` [compound 1486], the IC50 in experiment [1] was 19.7 µM. Further, the inhibition at 10 µM at Aβ40 is 32%.

Regarding `CCCc1ccc(-c2cc(N3CC(CN4CCCC4)C3)c3nonc3c2)cc1` [compound 1507], in experiment [1], the IC50 stood at 2.46 µM. The inhibition at 10 µM at Aβ40 amounted to 83%.

As for `c1ccc(Oc2ccc(-c3cc(N4CC(CN5CCCC5)C4)c4nonc4c3)cc2)cc1` [compound 1491], in experiment [1], the IC50 was found to be 0.52 µM. Besides, the inhibition at 10 µM on Aβ40 amounted to 32%.

Turning to `CS(=O)(=O)N1C=C(c2cc(N3CC(CN4CCCC4)C3)c3nonc3c2)CCC1` [compound 1533], the IC50 in experiment [1] was determined as 5.6 µM. In addition, on Aβ40, the inhibition at 10 µM was 35%.

As for `CS(=O)(=O)c1cccc(-c2cc(N3CC(CN4CCCC4)C3)c3nonc3c2)c1` [compound 1479], the IC50 in experiment [1] was 7.94 µM. The inhibition at 10 µM at Aβ40 was 24%.

For the compound `OC(c1cc(-c2cc(N3CCC(N4CCCC4)CC3)c3nonc3c2)cs1)C(F)(F)F` (centres unmarked) [compound 1463], the inhibition at 5 µM at Aβ40 (80 h, compound 5 μm (so in the source), read-out: % inhib Thioflavin T Aβ 40 (5 μm)) amounted to 37%. Moreover, the inhibition at 10 µM on Aβ40 stood at 61%.

As for `O=C(c1ccccc1)N1CCN(c2ccc([N+](=O)[O-])c(Nc3ccccc3)c2)CC1` [compound 1027, reference compound], at Aβ40, the “% inhib Thioflavin T Aβ 40 (3 μm)” value is 26%.

On to `OCC1CN(c2cc(-c3cccc(C(O)C(F)(F)F)c3)cc3nonc23)C1` (centres unmarked) [compound 1428], for which, at Aβ40, the “% inhib Thioflavin T Aβ 40 (3 μm)” value is 52%.

For `OC(c1cccc(-c2cc(N3CCC3)c3nonc3c2)c1)C(F)(F)F` (centres unmarked) [compound 1432], the “% inhib Thioflavin T Aβ 40 (3 μm)” value at Aβ40 is 23%.

Take `OCc1cccc(-c2cc(N3CC(CN4CCOCC4)C3)c3nonc3c2)c1` [compound 1598]: the IC50 in experiment [1] came out at 9.9 µM.

With `OC(c1ccc(-c2cc(N3CC(CN4CCOCC4)C3)c3nonc3c2)nc1)C(F)(F)F` (centres unmarked) [compound 1622, 2,2,2-trifluoro-1-(6-(7-(3-(morpholinomethyl)azetidin-1-yl)benzo[c][1,2,5]oxadiazol-5-yl)pyridin-3-yl)ethan-1-ol], the IC50 in experiment [1] came to 5.8 µM.

Turning to `OCc1csc(-c2cc(N3CC(CN4CCOCC4)C3)c3nonc3c2)n1` [compound 1565], the concentration for half-maximal inhibition (IC50) in experiment [1] is over 20 µM.

On to `FC(F)(F)c1nc(-c2cc(N3CC(CN4CCOCC4)C3)c3nonc3c2)no1` [compound 1643, 4-(3-(morpholinomethyl)azetidin-1-yl)-6-(5-(trifluoromethyl)-1,2,4-oxadiazol-3-yl)benzo[c][1,2,5]oxadiazole], for which the IC50 in experiment [1] came out at 14.2 µM.

On to `OCc1coc(-c2cc(N3CC(CN4CCOCC4)C3)c3nonc3c2)n1` [compound 1606, (2-(7-(3-(morpholinomethyl)azetidin-1-yl)benzo[c][1,2,5]oxadiazol-5-yl)oxazol-4-yl)methanol], for which the IC50 in experiment [1] was over 20 µM.

In the case of `CC(NC1CC1)c1cc(N2CC(CN3CCCC3)C2)c2nonc2c1` (centres unmarked) [compound 1551], the IC50 in experiment [1] worked out at 6.8 µM.

As for `OC(c1cncc(-c2cc(N3CC(CN4CCOCC4)C3)c3nonc3c2)c1)C(F)(F)F` (centres unmarked) [compound 1621, 2,2,2-trifluoro-1-(5-(7-(3-(morpholinomethyl)azetidin-1-yl)benzo[c][1,2,5]oxadiazol-5-yl)pyridin-3-yl)ethan-1-ol], the IC50 in experiment [1] was 16.7 µM.

With `N#Cc1cc(N2CC(CN3CCOCC3)C2)c2nonc2c1` [compound 1570, 7-(3-(morpholinomethyl)azetidin-1-yl) benzo[c][1,2,5]oxadiazole-5-carbonitrile], the IC50 in experiment [1] is over 20 µM.

With `OC(c1nc(-c2cc(N3CC(CN4CCOCC4)C3)c3nonc3c2)cs1)C(F)(F)F` (centres unmarked) [compound 1627], the IC50 in experiment [1] amounted to 10.4 µM.

As for `OC1(c2ccccc2-c2cc(N3CC(CN4CCOCC4)C3)c3nonc3c2)COC1` [compound 1663], in experiment [1], the IC50 was over 20 µM.

With `NC(=O)c1cccc(-c2cc(N3CC(CN4CCOCC4)C3)c3nonc3c2)c1` [compound 1576, 3-(7-(3-(morpholinomethyl)zetidin-1-yl)benzo[c][1,2,5]oxadiazol-5-yl) benzamide], the IC50 in experiment [1] came out at 46 µM.

Regarding `N#Cc1cccc(-c2cc(N3CC(CN4CCOCC4)C3)c3nonc3c2)c1` [compound 1577, 3-(7-(3-(morpholinomethyl)azetidin-1-yl)benzo[c][1,2,5]oxadiazol-5-yl)benzonitrile], the concentration for half-maximal inhibition (IC50) in experiment [1] was 14.8 µM.

Turning to `CC(C)(O)c1ccc(-c2cc(N3CC(CN4CCOCC4)C3)c3nonc3c2)cc1` [compound 1616], the IC50 in experiment [1] came to 16.2 µM.
